From US10294234B2, “HIV inhibitor compounds” (priority 2017, dated 2019)
Like-named read-outs stand apart in the source and are kept apart here.

How the values were obtained:
[1] = Procedure, shortened: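 LC/MS/MS read-out of parent compound remaining; in vitro t1/2 converted to Clint. Incubation: 1 uM compound, 0.5 mg/mL dog/rat/human liver microsomes, NADPH-regenerating system, duplicate sets, time-points 2–65 minutes.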
[2] = test system: HIV-1 (IIIB) in MT-4 cells; assay: MT-4 HIV assay; format: cell-based; settings: Human immunodeficiency virus 1, MT4, 120 h
Procedure, shortened: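 Antiviral activity was read by Cell Titer Glo after a 5-day, 37 °C culture of MT-4 cells pre-infected with a 1:250 dilution of HIV-1 (IIIB). Compounds were tested as threefold dilution series in complete RPMI. Controls were no drug, mock infection and 5 uM AZT.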

[3] = HIV-1 (IIIB), MT-4 cells, 5 days, Cell Titer Glo, read-out: EC50
[4] = human liver microsomes 0.5 mg/mL, 1 uM compound, NADPH
[5] = rat liver microsomes 0.5 mg/mL, 1 uM compound, NADPH

Row | Human Pred Cl. [1, 4] [L/H/kg] | Rat. Pred. Cl. [1, 5] [L/H/kg] | Structure (SMILES) | Human Pred Cl. ([1]; human, microsomes) [L/H/kg] | Rat. Pred. Cl. ([1]; rat, microsomes) [L/H/kg] | EC50 [2, 3] [nM] | EC50 [2] [nM] | Dog. Pred. Cl. ([1]; microsomes) [L/H/kg]
1 |  |  | COC(=O)N[C@H](C(=O)N[C@@H](Cc1ccc(-c2ccc(N3CC4CCC(C3)N4C3COC3)nc2)cc1)[C@@H](O)CN(Cc1c(F)cc(-c2ccn(C3CC3)n2)cc1F)NC(=O)[C@@H](NC(=O)OC)C(C)(C)C(F)(F)F)C(C)(C)C(F)(F)F [Example 204, Methyl ((5S,8S,9S,14S)-11-(4-(1-cyclopropyl-1H-pyrazol-3-yl)-2,6-difluorobenzyl)-16,16,16-trifluoro-9-hydroxy-15,15-dimethyl-8-(4-(6-(8-(oxetan-3-yl)-3,8-diazabicyclo[3.2.1]octan-3-yl)pyridin-3-yl)benzyl)-3,6,13-trioxo-5-(1,1,1-trifluoro-2-methylpropan-2-yl)-2-oxa-4,7,11,12-tetraazahexadecan-14-yl)carbamate] | 0.19 | 0.48 | 3.18 |  | 
2 |  |  | COC(=O)N[C@H](C(=O)N[C@@H](Cc1ccc(-c2ccc(N3CC4CCC(C3)N4C3COC3)nc2)cc1)[C@@H](O)CN(Cc1c(F)cc(-c2ccn(C)n2)cc1F)NC(=O)[C@@H](NC(=O)OC)C(C)(C)C)C(C)(C)C [Example 206, Methyl ((5S,8S,9S,14S)-5-(tert-butyl)-11-(2,6-difluoro-4-(1-methyl-1H-pyrazol-3-yl)benzyl)-9-hydroxy-15,15-dimethyl-8-(4-(6-(8-(oxetan-3-yl)-3,8-diazabicyclo [3.2.1]octan-3-yl)pyridin-3-yl)benzyl)-3,6,13-trioxo-2-oxa-4,7,11,12-tetraazahexadecan-14-yl)carbamate] | 0.41 | 1.03 | 3.7 |  | 
3 |  |  | COC(=O)N[C@H](C(=O)N[C@@H](Cc1ccc(-c2ccc(N3CC4CCC(C3)N4C3COC3)nc2)cc1)[C@@H](O)CN(Cc1c(F)cc(-c2ccn(C)n2)cc1F)NC(=O)[C@@H](NC(=O)OC)C(C)(C)C(F)(F)F)C(C)(C)C(F)(F)F [Example 207, Methyl ((5S,8S,9S,14S)-11-(2,6-difluoro-4-(1-methyl-1H-pyrazol-3-yl)benzyl)-16,16,16-trifluoro-9-hydroxy-15,15-dimethyl-8-(4-(6-(8-(oxetan-3-yl)-3,8-diazabicyclo[3.2.1]octan-3-yl)pyridin-3-yl)benzyl)-3,6,13-trioxo-5-(1,1,1-trifluoro-2-methylpropan-2-yl)-2-oxa-4,7,11,12-tetraazahexadecan-14-yl)carbamate] | 0.25 | 0.92 | 2.46 |  | 
4 | 1.12 | 1.21 | COC(=O)N[C@H](C(=O)N[C@@H](Cc1ccc(-c2cnn(C(F)F)c2)cc1)[C@@H](O)CN(Cc1c(F)cc(-c2ccn(C(F)F)n2)cc1F)NC(=O)[C@@H](NC(=O)OC)C(C)(C)C(F)(F)F)C(C)(C)C(F)(F)F [Example 209, Methyl ((5S,8S,9S,14S)-11-(4-(1-(difluoromethyl)-1H-pyrazol-3-yl)-2,6-difluorobenzyl)-8-(4-(1-(difluoromethyl)-1H-pyrazol-4-yl)benzyl)-16,16,16-trifluoro-9-hydroxy-15,15-dimethyl-3,6,13-trioxo-5-(1,1,1-trifluoro-2-methylpropan-2-yl)-2-oxa-4,7,11,12-tetraazahexadecan-14-yl)carbamate] |  |  |  | 3.19 | 
5 | 0.18 | <0.18 | CC(C)([C@H](NC(=O)OC1CC1)C(=O)N[C@@H](Cc1ccc(-c2cnn(C(F)F)c2)cc1)[C@@H](O)CN(Cc1c(F)cc(-c2cnn(C(F)F)c2)cc1F)NC(=O)[C@@H](NC(=O)OC1CC1)C(C)(C)C(F)(F)F)C(F)(F)F [Example 210, Cyclopropyl ((S)-1-(2-((2S,3S)-3-((S)-2-((cyclopropoxycarbonyl)amino)-4,4,4-trifluoro-3,3-dimethylbutanamido)-4-(4-(1-(difluoromethyl)-1H-pyrazol-4-yl)phenyl)-2-hydroxybutyl)-2-(4-(1-(difluoromethyl)-1H-pyrazol-4-yl)-2,6-difluorobenzyl)hydrazinyl)-4,4,4-trifluoro-3,3-dimethyl-1-oxobutan-2-yl)carbamate] |  |  | 15 |  | 
6 |  |  | COC(=O)N[C@H](C(=O)N[C@@H](Cc1ccc(-c2ccn(CC(F)F)n2)cc1)[C@@H](O)CN(Cc1c(F)cc(-c2cnc(N3CC4CCC(C3)N4C3COC3)nc2)cc1F)NC(=O)[C@@H](NC(=O)OC)C(C)(C)C(F)(F)F)C(C)(C)C(F)(F)F [Example 212, Methyl ((5S,8S,9S,14S)-11-(2,6-difluoro-4-(2-(8-(oxetan-3-yl)-3,8-diazabicyclo[3.2.1]octan-3-yl)pyrimidin-5-yl)benzyl)-8-(4-(1-(2,2-difluoroethyl)-1H-pyrazol-3-yl)benzyl)-16,16,16-trifluoro-9-hydroxy-15,15-dimethyl-3,6,13-trioxo-5-(1,1,1-trifluoro-2-methylpropan-2-yl)-2-oxa-4,7,11,12-tetraazahexadecan-14-yl)carbamate] | 0.33 | 0.33 | 4.97 |  | 
7 | <0.11 | <0.18 | CC(C)([C@H](NC(=O)C1CC1)C(=O)N[C@@H](Cc1ccc(-c2cnn(C(F)F)c2)cc1)[C@@H](O)CN(Cc1c(F)cc(-c2cnn(C(F)F)c2)cc1F)NC(=O)[C@@H](NC(=O)C1CC1)C(C)(C)C(F)(F)F)C(F)(F)F [Example 214, N—((S)-1-(2-((2S,3S)-3-((S)-2-(cyclopropanecarboxamido)-4,4,4-trifluoro-3,3-dimethylbutanamido)-4-(4-(1-(difluoromethyl)-1H-pyrazol-4-yl)phenyl)-2-hydroxybutyl)-2-(4-(1-(difluoromethyl)-1H-pyrazol-4-yl)-2,6-difluorobenzyl)hydrazinyl)-4,4,4-trifluoro-3,3-dimethyl-1-oxobutan-2-yl)cyclopropanecarboxamide] |  |  | 12.3 |  | 
8 | 0.92 | 0.45 | COC(=O)N[C@H](C(=O)NN(Cc1c(F)cc(-c2ccn(C(F)F)n2)cc1F)C[C@H](O)[C@H](Cc1ccc(-c2cnn(C(F)F)c2)cc1)NC(=O)[C@@H](NC(=O)OC)C(C)(C)C(F)(F)F)C(C)(C)C [Example 218, Methyl ((5S,8S,9S,14S)-11-(4-(1-(difluoromethyl)-1H-pyrazol-3-yl)-2,6-difluorobenzyl)-8-(4-(1-(difluoromethyl)-H-pyrazol-4-yl)benzyl)-9-hydroxy-15,15-dimethyl-3,6,13-trioxo-5-(1,1,1-trifluoro-2-methylpropan-2-yl)-2-oxa-4,7,11,12-tetraazahexadecan-14-yl)carbamate] |  |  | 2.99 |  | 
9 |  |  | COC(=O)N[C@H](C(=O)N[C@@H](Cc1ccc(C#Cc2cnc(N3CC4CCC(C3)N4C3COC3)nc2)cc1)[C@@H](O)CN(Cc1c(F)cc(-c2cn(C(F)F)nn2)cc1F)NC(=O)[C@@H](NC(=O)OC)C(C)(C)C(F)(F)F)C(C)(C)C(F)(F)F [Example 219, Methyl ((5S,8S,9S,14S)-11-(4-(1-(difluoromethyl)-1H-1,2,3-triazol-4-yl)-2,6-difluorobenzyl)-16,16,16-trifluoro-9-hydroxy-15,15-dimethyl-8-(4-((2-(8-(oxetan-3-yl)-3,8-diazabicyclo[3.2.1]octan-3-yl)pyrimidin-5-yl)ethynyl)benzyl)-3,6,13-trioxo-5-(1,1,1-trifluoro-2-methylpropan-2-yl)-2-oxa-4,7,11,12-tetraazahexadecan-14-yl)carbamate] | <0.11 | 0.24 | 4.1 |  | 0.19
10 |  |  | CC(C)([C@H](NC(=O)OC1COC1)C(=O)N[C@@H](Cc1ccc(C#Cc2cnc(N3CC4CCC(C3)N4C3COC3)nc2)cc1)[C@@H](O)CN(Cc1c(F)cc(-c2ccn(C(F)F)n2)cc1F)NC(=O)[C@@H](NC(=O)OC1COC1)C(C)(C)C(F)(F)F)C(F)(F)F [Example 220, Oxetan-3-yl ((2S)-1-(2-(4-(1-(difluoromethyl)-1H-pyrazol-3-yl)-2,6-difluorobenzyl)-2-((2S,3S)-2-hydroxy-4-(4-((2-(8-(oxetan-3-yl)-3,8-diazabicyclo [3.2.1]octan-3-yl)pyrimidin-5-yl)ethynyl)phenyl)-3-((S)-4,4,4-trifluoro-3,3-dimethyl-2-(((oxetan-3-yloxy)carbonyl)amino)butanamido)butyl)hydrazinyl)-4,4,4-trifluoro-3,3-dimethyl-1-oxobutan-2-yl)carbamate] | <0.11 | 0.34 | 7.66 |  | 0.46
11 |  |  | COC(=O)N[C@H](C(=O)N[C@@H](Cc1ccc(C#Cc2ccc(N3CC4CCC(C3)N4C3COC3)nc2)cc1)[C@@H](O)CN(Cc1c(F)cc(-c2ccc(C)cn2)cc1F)NC(=O)[C@@H](NC(=O)OC)C(C)(C)C(F)(F)F)C(C)(C)C(F)(F)F [Example 229, Methyl ((5S,8S,9S,14S)-11-(2,6-difluoro-4-(5-methylpyridin-2-yl)benzyl)-16,16,16-trifluoro-9-hydroxy-15,15-dimethyl-8-(4-((6-(8-(oxetan-3-yl)-3,8-diazabicyclo [3.2.1]octan-3-yl)pyridin-3-yl)ethynyl)benzyl)-3,6,13-trioxo-5-(1,1,1-trifluoro-2-methylpropan-2-yl)-2-oxa-4,7,11,12-tetraazahexadecan-14-yl)carbamate] | <0.11 | 0.26 | 7.86 |  | 
